From patent US20250074911A1, “MACROCYCLIC BTK INHIBITORS” (Crossfire Oncology Holding B.V., priority 2021, published 2025)
Where “and” joins values, the source holds several entries; their conditions need not be identical. Equal entries are not always repeated.

What was measured:
[1] = target: full-length wt-BTK enzyme (Homo sapiens (Human), UniProt Q06187); experiment: Biochemical kinase assay wt-BTK (IMAP)
Procedure, shortened: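 IMAP fluorescence polarization assay: 1.2 nM enzyme pre-incubated 1 h with compound at room temperature, then 50 nM fluorescein-labeled MBP-derived peptide and 4 μM ATP added. Reaction ran 2 h at room temperature in the dark before quenching with IMAP binding solution.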

[2] = target: full-length BTK C481S enzyme (Homo sapiens (Human), UniProt Q06187, C481S); experiment: Biochemical kinase assay BTK C481S (IMAP)
Procedure, shortened: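 Full-length BTK C481S (1.2 nM) was pre-incubated with compound for 1 h at room temperature in the dark, then reacted with fluorescein-labelled MBP-derived peptide (50 nM) and ATP (7 μM) for 2 h. Reactions were quenched with IMAP binding solution, and IC50 values were derived from fluorescence polarization.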

[3] = system: wt-REC-1 mantle cell lymphoma cells; experiment: Cell proliferation assay wt-REC-1 (ATPlite, 72 hours); type: cell-based; details: 72 h; read-out: IC50 wt-REC-1
Procedure, shortened: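 Luminescent viability read over 72 h, start-of-incubation signal recorded separately to separate growth from cell death. Percentage growth referenced to compound-free 0.3% DMSO wells; IC50 from 4-parameter logistic fit.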

[4] = system: REC-1 T474I cell lines; experiment: Cell proliferation assay REC-1 BTK T474I knock-in cells (ATPlite, 72 hours); type: cell-based; details: Homo sapiens, Rec1; 72 hours; read-out: IC50 REC-1 T474I
Procedure, shortened: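 REC-1 cells carrying CRISPR knock-in mutant BTK, single-cell cloned and sequence-confirmed, were exposed to compound for 72 h and read by ATPlite luminescence. Percentage growth was calculated against the signal at the start of incubation and against untreated 0.3% DMSO wells as maximum growth.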

[5] = target: wt-BTK (Homo sapiens (Human), UniProt Q06187); experiment: Binding kinetics measurements (Surface Plasmon Resonance) on wt-BTK; details: for Tau (h) wt-BTK (Act): target residence time, SPR; for Kd: binding affinity by Surface Plasmon Resonance (SPR)
Description: (§1) Binding kinetics measurements on wt-BTK, BTK […], BTK […], BTK […] and BTK […] (Surface Plasmon Resonance) Streptavidin-coated chips (Cat. No. BR100531), disposables and maintenance kits for Biacore were purchased from Cytiva (Eindhoven, The Netherlands). […] Remaining streptavidin was blocked with biocytin. Immobilization was performed at 4° C. Subsequent assay steps were conducted at 22° C. After changing buffer to Biacore buffer with 1% (v/v) dimethylsulfoxide (DMSO), a pre-run was performed for a period of at least 30 min at a flow rate of 30 μl/min to obtain a stable surface. The kinetic constants of the compounds were determined with single cycle kinetics with five consecutive injections with an increasing compound concentration with ranges of 3.16-316 nM. […] To circumvent problems of mass transport limitation, a flow rate of 30 μl/min was used. A blank run with the same conditions was performed before the compound was injected. The SPR sensorgrams were analyzed with Biacore Evaluation Software by using a method of double referencing. First the reference channel was subtracted from the channel containing immobilized protein. Subsequently, the reference curve obtained with buffer injections was subtracted. […] Compounds that bound according to an induced fit model were fitted with a two-state reaction model. The kinetic constants (ka, […], KD) of duplicates were geometrically averaged. […] Target residence for an induced fit model was calculated as described (Tummino and Copeland, 2008).

[6] = target: BTK T474I (Homo sapiens (Human), UniProt Q06187, T474I); experiment: Binding kinetics measurements (Surface Plasmon Resonance) on BTK T474I; details: for Tau (h) BTK T474I (Act): target residence time, SPR; for Kd: binding affinity by Surface Plasmon Resonance (SPR)
Description: as §1

[7] = system: wt-TMD8 diffuse large B-cell lymphoma cells; experiment: Cell proliferation assay wt-TMD8 (ATPlite, 120 hours); type: cell-based; details: B-cell; wt-TMD8 cells, 120 hours, ATPlite; read-out: IC50 wt-TMD8
Procedure, shortened: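 wt-TMD8 DLBCL cells, 1600 per well in RPMI-1640 with 10% FBS, rested ≥5 h then exposed to compound for 120 h at 37° C, 5% CO2. Viability read by ATPlite luminescence; percentage growth calculated relative to start-of-incubation signal and untreated 0.3% DMSO maximum growth.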

[8] = target: BTK C481S (Homo sapiens (Human), UniProt Q06187, C481S); experiment: Binding kinetics measurements (Surface Plasmon Resonance) on BTK C481S; details: target residence time for BTK C481S, SPR
Description: as §1

Chain of wt-BTK (Q06187 whole entry): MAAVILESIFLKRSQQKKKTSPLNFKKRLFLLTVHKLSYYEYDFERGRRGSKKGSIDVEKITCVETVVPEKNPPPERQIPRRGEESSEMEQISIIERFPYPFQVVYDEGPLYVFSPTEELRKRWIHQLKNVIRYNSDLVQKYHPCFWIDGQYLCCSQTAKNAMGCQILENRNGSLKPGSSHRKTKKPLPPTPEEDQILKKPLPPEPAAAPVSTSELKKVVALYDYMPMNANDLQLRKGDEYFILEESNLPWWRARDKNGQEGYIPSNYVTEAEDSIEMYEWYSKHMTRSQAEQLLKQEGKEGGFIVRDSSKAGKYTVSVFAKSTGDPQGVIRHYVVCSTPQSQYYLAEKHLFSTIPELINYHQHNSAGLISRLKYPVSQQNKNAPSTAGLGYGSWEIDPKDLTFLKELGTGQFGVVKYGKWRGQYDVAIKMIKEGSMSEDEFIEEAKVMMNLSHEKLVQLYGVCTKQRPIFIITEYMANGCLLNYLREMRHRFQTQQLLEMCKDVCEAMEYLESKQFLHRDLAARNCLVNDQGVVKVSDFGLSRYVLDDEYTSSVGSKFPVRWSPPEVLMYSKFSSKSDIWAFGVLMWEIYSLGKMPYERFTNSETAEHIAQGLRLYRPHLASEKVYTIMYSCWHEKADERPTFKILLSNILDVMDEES
Chain of full-length wt-BTK enzyme (Q06187 whole entry): as above
Chain of BTK T474I (Q06187 whole entry T474I): as the sequence (Q06187 whole entry) above, with T474I counted along it
Chain of full-length BTK C481S enzyme (Q06187 whole entry C481S): as the sequence (Q06187 whole entry) above, with C481S counted along it
Chain of BTK C481S (Q06187 whole entry C481S): as the sequence (Q06187 whole entry) above, with C481S counted along it

SMILES | IC50 [1] [µM] | IC50 [2] [µM] | IC50 [3] [µM] | IC50 [4] [µM] | Tau (h) wt-BTK (Act) [5] [h] | Tau (h) BTK T474I (Act) [6] [h] | IC50 [7] [µM] | Tau (h) BTK C418S (Act) [8] [h] | Kd [5] [µM] | Kd [6]
COc1ccnc(NC(=O)c2ccc(-c3nc4n5c(cnc(N)c35)/C=C/CCOCCC(=O)N[C@@H]3CC[C@@H]4C3)cc2)c1 [Example 217] | < 0.005 | < 0.005 | < 0.1 | < 0.1 | 2.78 | 0.70 | < 0.1 |  |  | 
N#Cc1ccnc(NC(=O)c2ccc(-c3nc4n5c(cnc(N)c35)/C=C/COCCC(=O)N[C@@H]3CCC[C@@H]4C3)cc2)c1 [Example 200] | < 0.005 | < 0.005 | < 0.1 | 0.5 to 10 | 2.12 | 0.77 | < 0.1 | 2.23 |  | 
N#Cc1ccnc(NC(=O)c2ccc(-c3nn4c5c(cnc(N)c35)/C=C/CCOCCC(=O)N[C@@H]3CC[C@@H]4C3)cc2)c1 [Example 185] | < 0.005 | < 0.005 | < 0.1 | < 0.1 | 10.79 | 1.26 | < 0.1 |  |  | 
COc1ccc(F)cc1C(=O)NCc1ccc(-c2nc3n4c(cnc(N)c24)/C=C/CCOCCC(=O)N[C@@H]2CC[C@@H]3C2)cc1 [Example 213] | < 0.005 | < 0.005 | < 0.1 | < 0.1 | 2.29 | 0.93 | < 0.1 |  | < 0.005 | < 0.002 µM
Nc1ncc2n3c(nc(-c4ccc(C(=O)Nc5cc(C(F)F)ccn5)cc4)c13)[C@@H]1CC[C@H](C1)NC(=O)CCOCC/C=C/2 [Example 222] | < 0.005 | < 0.005 | < 0.1 | 0.1 to 0.5 | 5.31 | 0.60 | < 0.1 |  |  | 
Nc1ncc2n3c(nc(-c4ccc(C(=O)Nc5cc(C(F)(F)F)ccn5)cc4)c13)[C@@H]1CC[C@H](C1)NC(=O)CCOC/C=C/2 [Example 198] | < 0.005 | < 0.005 | < 0.1 |  | 4.28 | 1.44 | < 0.1 | 18.16 |  | 
Nc1ncc2c3c1c(-c1ccc(C(=O)Nc4cc(F)ccn4)cc1)nn3[C@@H]1CCC[C@H](C1)NC(=O)CCOC/C=C/2 [Example 189] | < 0.005 | < 0.005 | 1 to 10 | 0.5 to 10 | 4.17 | 1.56 | < 0.1 |  | < 0.005 | 
Nc1ncc2n3c(nc(-c4ccc(C(=O)Nc5cc(C(F)(F)F)ccn5)cc4)c13)[C@@H]1CC[C@H](C1)NC(=O)CCCCC/C=C/2 [Example 203] | < 0.005 | < 0.005 | < 0.1 | < 0.1 | 5.73 | 4.17 | < 0.1 |  |  | 
Nc1ncc2c3c1c(-c1ccc(C(=O)Nc4cc(C(F)(F)F)ccn4)cc1)nn3[C@@H]1COC[C@H](C1)NC(=O)CCOC/C=C/2 [Example 192] | < 0.005 | < 0.005 | < 0.1 | < 0.1 | 3.61 | 1.40 | < 0.1 |  | < 0.005 | < 0.002 µM
N#Cc1ccnc(NC(=O)c2ccc(-c3nc4n5c(cnc(N)c35)/C=C/CCOCCC(=O)N[C@@H]3CCC[C@@H]4C3)cc2)c1 [Example 205] | < 0.005 | < 0.005 | < 0.1 | < 0.1 | 1.80 | 1.15 | < 0.1 |  |  | 
COc1ccc(F)cc1C(=O)NCc1ccc(-c2nc3n4c(cnc(N)c24)/C=C/COCCC(=O)N[C@@H]2CCC[C@@H]3C2)cc1 [Example 211] | < 0.005 | < 0.005 | < 0.1 | 0.5 to 10 |  |  | < 0.1 |  | < 0.005 | 0.01 to 0.05 µM and < 0.005 µM
Cc1ccnc(NC(=O)c2ccc(-c3nc4n5c(cnc(N)c35)/C=C/CCOCCC(=O)N[C@@H]3CC[C@@H]4C3)cc2)c1 [Example 215] | < 0.005 | < 0.005 | < 0.1 | < 0.1 | 9.76 | 1.18 | < 0.1 |  |  | 
Nc1ncc2c3c1c(-c1ccc(C(=O)Nc4cc(F)ccn4)cc1)nn3[C@@H]1CCC[C@H](C1)NC(=O)CCOCC/C=C/2 [Example 193] | < 0.005 | < 0.005 | < 0.1 | < 0.1 | 6.70 | >24 | < 0.1 |  | < 0.005 | < 0.002 µM
Nc1ncc2n3c(nc(-c4ccc(C(=O)Nc5cc(OC(F)F)ccn5)cc4)c13)[C@@H]1CC[C@H](C1)NC(=O)CCOCC/C=C/2 [Example 224] | < 0.005 | < 0.005 | < 0.1 | < 0.1 | 3.69 | 1.60 | < 0.1 |  |  | 
COc1ccc(F)cc1C(=O)NCc1ccc(-c2nc3n4c(cnc(N)c24)/C=C/CCOCCC(=O)N[C@@H]2CCC[C@@H]3C2)cc1 [Example 210] | < 0.005 | < 0.005 | < 0.1 | < 0.1 | 1.22 | 0.68 | < 0.1 |  | < 0.005 | < 0.002 µM
Cn1nc(NC(=O)c2ccc(-c3nc4n5c(cnc(N)c35)/C=C/CCOCCC(=O)N[C@@H]3CC[C@@H]4C3)cc2)cc1C(F)(F)F [Example 216] | < 0.005 | < 0.005 | < 0.1 | < 0.1 | 4.79 | 1.28 | < 0.1 |  |  | 
